# Results taken from paper PMC3429506, “Screening for Novel LRRK2 Inhibitors Using a High-Throughput TR-FRET Cellular Assay for LRRK2 Ser935 Phosphorylation” (PLoS ONE, 2012).
# Where two headings read alike, the source gives them in different places.
# Legend:
# LRRK2-GFP = assay: Fluorescence microscopy of LRRK2-GFP localization in U-2 OS cells; assay type: cell-based, human; details: 3 µM 90 min, Figure 1A
# Description: U-2 OS cells were transduced with BacMam LRRK2-GFP as described above. The cells were then plated on chambered coverslips (LabTek II/Nunc, Rochester, NY) at 50% confluency and incubated for 48 hours. The growth medium was replaced with phenol-red free DMEM® (Life Technologies, Carlsbad, CA) before live imaging. Cells were imaged under the same conditions for each mutant using an inverted microscope (Nikon Eclipse TE2000-S) equipped with a PlanApo 60X objective and a charge-coupled device camera (Diagnostic Instruments SPOT RT 2.3.0) using SPOT Advanced software.
# LRRK2 A2016T/G2019S = molecular target: T1, LRRK2 A2016T/G2019S (Homo sapiens, UniProt Q5S007, A2016T/G2019S); assay: Immunoprecipitation/Western analysis of LRRK2 phosphorylation in T-REx HEK293 cells expressing inhibitor desensitizing mutant; assay type: cell-based; details: 20 µM, Figure 6 IRM
# T1 construct: expressed in transfected cells
# T1 sequence (Q5S007 whole entry A2016T/G2019S): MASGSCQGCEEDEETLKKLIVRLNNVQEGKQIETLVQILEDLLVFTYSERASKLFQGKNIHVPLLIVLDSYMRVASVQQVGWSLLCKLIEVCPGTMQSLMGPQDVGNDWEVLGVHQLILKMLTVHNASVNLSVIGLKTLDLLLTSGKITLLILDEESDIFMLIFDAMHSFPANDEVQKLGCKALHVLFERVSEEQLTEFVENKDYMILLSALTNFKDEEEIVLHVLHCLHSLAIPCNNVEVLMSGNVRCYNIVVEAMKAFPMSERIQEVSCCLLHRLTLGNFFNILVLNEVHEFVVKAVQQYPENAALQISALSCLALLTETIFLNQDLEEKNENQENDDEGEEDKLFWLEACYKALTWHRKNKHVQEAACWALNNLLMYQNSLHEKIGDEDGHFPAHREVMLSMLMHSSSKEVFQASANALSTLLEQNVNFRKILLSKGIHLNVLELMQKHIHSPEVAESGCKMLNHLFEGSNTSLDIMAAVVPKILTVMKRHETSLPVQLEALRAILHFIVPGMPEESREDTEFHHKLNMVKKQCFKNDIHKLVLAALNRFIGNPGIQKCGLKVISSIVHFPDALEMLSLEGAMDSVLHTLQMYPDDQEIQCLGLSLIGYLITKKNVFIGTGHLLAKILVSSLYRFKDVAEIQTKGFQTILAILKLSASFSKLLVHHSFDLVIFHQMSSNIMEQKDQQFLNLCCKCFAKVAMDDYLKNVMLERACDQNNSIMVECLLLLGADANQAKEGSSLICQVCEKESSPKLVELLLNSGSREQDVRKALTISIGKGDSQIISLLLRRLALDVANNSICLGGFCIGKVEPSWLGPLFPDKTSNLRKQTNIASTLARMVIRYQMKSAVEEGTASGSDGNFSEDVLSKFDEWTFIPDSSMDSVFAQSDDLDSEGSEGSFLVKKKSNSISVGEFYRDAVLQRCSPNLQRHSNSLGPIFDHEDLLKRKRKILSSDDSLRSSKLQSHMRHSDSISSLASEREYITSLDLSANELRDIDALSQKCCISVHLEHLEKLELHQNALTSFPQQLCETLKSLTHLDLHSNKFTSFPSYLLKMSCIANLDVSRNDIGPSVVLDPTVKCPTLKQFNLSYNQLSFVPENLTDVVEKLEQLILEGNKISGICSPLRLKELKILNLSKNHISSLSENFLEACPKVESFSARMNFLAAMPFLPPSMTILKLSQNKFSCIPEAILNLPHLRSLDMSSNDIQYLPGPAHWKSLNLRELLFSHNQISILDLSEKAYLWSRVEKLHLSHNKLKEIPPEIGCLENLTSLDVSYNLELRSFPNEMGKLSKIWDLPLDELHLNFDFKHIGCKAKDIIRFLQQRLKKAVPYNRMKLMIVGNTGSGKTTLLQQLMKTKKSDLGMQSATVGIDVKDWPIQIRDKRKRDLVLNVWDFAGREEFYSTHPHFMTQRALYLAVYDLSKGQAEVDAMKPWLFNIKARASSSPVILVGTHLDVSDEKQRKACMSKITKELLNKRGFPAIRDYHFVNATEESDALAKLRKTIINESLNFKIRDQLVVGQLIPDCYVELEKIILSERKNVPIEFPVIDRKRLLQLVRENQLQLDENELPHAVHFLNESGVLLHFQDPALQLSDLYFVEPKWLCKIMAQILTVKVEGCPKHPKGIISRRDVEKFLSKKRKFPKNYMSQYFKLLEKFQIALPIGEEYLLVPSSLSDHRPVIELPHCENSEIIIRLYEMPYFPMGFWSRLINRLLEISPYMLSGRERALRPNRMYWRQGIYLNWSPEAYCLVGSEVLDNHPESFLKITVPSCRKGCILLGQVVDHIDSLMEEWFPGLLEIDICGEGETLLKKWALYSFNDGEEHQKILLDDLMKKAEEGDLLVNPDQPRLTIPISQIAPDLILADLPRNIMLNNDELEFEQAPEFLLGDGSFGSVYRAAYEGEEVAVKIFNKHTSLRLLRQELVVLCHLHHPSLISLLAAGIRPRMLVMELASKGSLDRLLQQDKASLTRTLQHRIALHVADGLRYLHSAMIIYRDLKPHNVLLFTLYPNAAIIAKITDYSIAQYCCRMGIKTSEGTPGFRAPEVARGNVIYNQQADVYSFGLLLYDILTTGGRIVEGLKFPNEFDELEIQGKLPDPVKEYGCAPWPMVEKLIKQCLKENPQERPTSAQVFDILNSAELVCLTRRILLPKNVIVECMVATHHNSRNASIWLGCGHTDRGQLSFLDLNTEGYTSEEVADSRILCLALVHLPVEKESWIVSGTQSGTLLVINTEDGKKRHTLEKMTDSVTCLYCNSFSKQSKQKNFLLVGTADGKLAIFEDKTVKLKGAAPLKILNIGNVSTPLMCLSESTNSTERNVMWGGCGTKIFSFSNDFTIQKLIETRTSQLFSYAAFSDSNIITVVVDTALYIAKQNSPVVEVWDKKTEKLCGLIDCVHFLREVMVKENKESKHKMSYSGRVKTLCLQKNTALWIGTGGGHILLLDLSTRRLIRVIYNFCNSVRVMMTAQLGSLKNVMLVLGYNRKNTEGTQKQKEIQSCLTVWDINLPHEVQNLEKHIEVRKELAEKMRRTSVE
# Description: Immunoblot analysis: BacMam LRRK2-GFP transduced U-2 OS or SH-SY5Y cells (10^7 cells) were left untreated or treated with 3 µM LRRK2-IN-I for 90 min. For lysate preparation, the cells were washed once with ice-cold PBS and lysed by addition of ice-cold lysis buffer (20 mM Tris-HCl, pH 7.4, 1% NP-40, 5 mM EDTA, 5 mM NaF, 150 mM NaCl, and 1∶100 of protease and phosphatase inhibitor cocktails). The lysate was cleared of debris by centrifugation. Equal amount of total protein was loaded onto each lane for SDS-PAGE (3–8% Tris Acetate). The proteins were transferred onto nitrocellulose membrane using the iBLOT® dry blotting system (Life Technologies) according to manufacturer’s protocol. The membranes were blocked and incubated with a primary antibody against LRRK2 (Cell Signaling Technologies), followed by incubation with alkaline phosphatase-conjugated secondary antibody (WesternBreeze® chromogenic Kit, Life Technologies). The blot was developed by using the chromogenic BCIP/NBT substrate (WesternBreeze® chromogenic Kit, Life Technologies). […] Two days post induction, cells were treated for 90 minutes in the presence of 20 µM of compound or DMSO vehicle control. Cells were rapidly lysed in ice cold lysis buffer 50 mM Tris/HCl, pH 7.5, 1 mM EGTA, 1 mM EDTA, […] 1 mM sodium orthovanadate, 10 mM sodium beta-glycerolphosphate, 50 mM NaF, 5 mM sodium pyrophosphate, 0.27 M sucrose, 1 mM benzamidine and 2 mM phenylmethanesulphonylfluoride (PMSF) and one tablet each complete protease inhibitor and PhosSTOP phosphatase inhibitor (Roche) and was supplemented with 1% (v/v) Triton X-100. GFP-LRRK2 was immunoprecipitated with GFP nanotrap beads (ChromoTek). Immunecomplexes were washed twice with lysis buffer supplemented with 300 mM NaCl and once with Buffer A (50 mM Tris/HCl, pH 7.5, 50 mM NaCl, 0.1 mM EGTA and 0.1% (v/v) 2-mercaptoethanol, and 0.27 M sucrose).
# [1] = Cytotoxicity assay (resazurin-based cell viability); details: human
# LRRK2 wild-type = LRRK2 wild-type (Homo sapiens, UniProt Q5S007); assay: TR-FRET cellular assay for LRRK2 Ser935 phosphorylation, U-2 OS cells, BacMam LRRK2-GFP wild-type; assay type: cell-based; design: This high-throughput assay utilizes cells expressing full-length human LRRK2 with a C-terminal GFP tag (LRRK2-GFP); host or cells: U-2 OS cells transduced with BacMam
# Chain of LRRK2 wild-type (Q5S007 whole entry): as the sequence (Q5S007 whole entry A2016T/G2019S) above, with T2016A, S2019G counted along it
# Description: U-2 OS cells are maintained in growth medium (McCoy’s 5A supplemented with 10% dialyzed FBS (dFBS), 10 mM HEPES, 0.1 mM NEAA, 1 mM Sodium Pyruvate, and 100 U/mL Penicillin/100 µg/mL Streptomycin). HEK293T cells are maintained in DMEM with 10% dFBS, 10 mM HEPES, 0.1 mM NEAA and 100 U/mL Penicillin/100 µg/mL Streptomycin. SH-SY5Y cells are maintained in DMEM/F-12 medium supplemented with 10% dFBS and 100 U/mL Penicillin/100 µg/mL Streptomycin. […] GIBCO® human neural stem cells (hNSCs) were propagated as an adherent culture in StemPro® NSC SFM according to the manufacturer’s recommended protocol (Life Technologies). For BacMam transduction of U-2 OS and HEK293T, cells were harvested, mixed with various amounts of BacMam LRRK2-GFP reagent (v/v) and plated onto 6-well plates. […] Cells were assayed in 384-well format (∼20,000 cells/well) 48 hours post-transduction as above.
# Transduced cells in the 384-well assay plate were incubated with indicated inhibitors (5X, 5 µL/well) for 60 to 90 minutes. During this time, 6 X lysis buffer (Life Technologies) was supplemented with 30 nM Tb-labeled anti-LRRK2 pSer935 antibody and both protease and phosphatase inhibitor cocktails (Sigma). The complete 6 X lysis buffer was added to each well (5 µL/well) and the plates were incubated at room temperature in the dark for 2 hours. […] A sigmoidal dose-response equation with varying slope was used to fit the data and generate IC50 values. Z′-factor values were calculated as: Z′-factor = 1 - [(3 × stdevno virus +3 × stdevmaxvirus)/(avgmaxvirus – avgno-virus)]. The IC50 values reported in Table 1 are the averaged numbers from three independent experiments.
# LRRK2 G2019S = LRRK2 G2019S (Homo sapiens, UniProt Q5S007, G2019S); assay: TR-FRET cellular assay for LRRK2 Ser935 phosphorylation, SH-SY5Y cells, BacMam LRRK2-GFP G2019S (incl. Tocriscreen Mini library screen and follow-up); assay type: cell-based; design: This high-throughput assay utilizes cells expressing full-length human LRRK2 with a C-terminal GFP tag (LRRK2-GFP); host or cells: SH-SY5Y cells transduced with BacMam
# Chain of LRRK2 G2019S (Q5S007 whole entry G2019S): as the sequence (Q5S007 whole entry A2016T/G2019S) above, with T2016A counted along it
structure (smiles),measurement,setting,value
COc1cc(C(=O)N2CCC(N3CCN(C)CC3)CC2)ccc1Nc1ncc2c(n1)N(C)c1ccccc1C(=O)N2C [LRRK2-IN-1],LRRK2-GFP cellular localization,LRRK2-GFP,"relocalization of the wild-type, G2019S and R1441C to more fibrillar-like structures"
same,effect of desensitizing mutation A2016T/G2019S on compound-induced dephosphorylation (IP-Western),LRRK2 A2016T/G2019S,rescued phosphorylation
same,IC50,[1],> 20000 nM
same,IC50,"LRRK2 wild-type; 20% BacMam wild-type, 90 min, Figure 2B, read-out: IC50, inhibition of TR-FRET signal (Ser935 phosphorylation)",80 nM
same,IC50,"LRRK2 wild-type; WT, +/- SD, three independent experiments, * = partial inhibition, read-out: IC50, TR-FRET cell-based assay for Ser935 phosphorylation of LRRK2",90 nM
same,IC50,"LRRK2 G2019S; SH-SY5Y, 25% BacMam G2019S, 90 min, Figure 3C, read-out: IC50, inhibition of TR-FRET signal (Ser935 phosphorylation)",40 nM
same,IC50,"LRRK2 G2019S; SH-SY5Y, G2019S, +/- SD, three independent experiments, * = partial inhibition, read-out: IC50, TR-FRET cell-based assay for Ser935 phosphorylation of LRRK2",60 nM
same,inhibition at 10 µM,"LRRK2 G2019S; SH-SY5Y, LRRK2-IN-1 positive control used at 10 µM, SH-SY5Y G2019S, read-out: %Inhibition Initial screen (positive control)",100%
same,IC50,"LRRK2 G2019S; cryopreserved pretransduced SH-SY5Y cells, 25% BacMam G2019S, 90 min, Figure S3, read-out: IC50 using cryopreserved cells",~40 nM
same,IC50,"LRRK2 G2019S; dose-response follow-up, SH-SY5Y G2019S, three independent experiments, read-out: Cellular TR-FRET Assay IC50 +/-SD",70 nM
